pIC50: −log10 of the molar value.
Columns and labels:
[1] = target: T1, Human KRAS G12V (Homo sapiens, UniProt P01116, G12V); experiment: KRAS-G12V/GTP binding assay (HTRF kit); conditions: 25° C., 1 h
T1 construct: purchased PerkinElmer
Procedure: Test Example 2: KRAS G12V Binding Assay
In this method, the inhibitory effects of the compounds on the binding of KRAS G12V to GTP were assayed by a homogeneous time-resolved fluorescence (HTRF) technique using a KRAS-G12V/GTP binding assay kit (PerkinElmer).
The experimental procedures were as follows (refer to the kit instructions for detailed test methods): the compounds of the present disclosure were each firstly dissolved in DMSO at a concentration of 20 mM, and then diluted in an equal gradient with a buffer in the kit, so that the final concentrations of the test compounds in the reaction system were in a range of 0.02-5000 nM, and the final concentration of DMSO was 0.5%. 5 μL of each compound was incubated with 5 μL of 1× Human KRAS G12V 6His-tagged (PerkinElmer), 5 µL of 1×6His Eu Cryptate Antibody (PerkinElmer), and 5 μL of 1×GTP Red reagent (PerkinElmer) in a 384-well plate (Greiner) at 25° C. for 1 h. After the incubation was completed, the fluorescence intensity of each well was measured at the excitation wavelength of 337 nm and the emission wavelengths of 620 nm and 665 nm with an EnVision microplate reader (PerkinElmer) in the HTRF mode, and Ratio values were calculated using the formula: Ratio=(665 nm/620 nm)×10^4. The inhibition rates of the compounds at each concentration were calculated by comparing the fluorescence intensity ratio with that of the control group. Then non-linear curve fittings for logarithmic concentration-inhibition rate were performed using the GraphPad Prism 8 analysis software, and the IC50 values of the compounds were obtained (Table 3).

[2] = system: KRAS G12D mutant human metastatic pancreatic cancer cell AsPc-1; experiment: 3D cell proliferation inhibition assay, AsPc-1; format: cell-based; conditions: ASPC1, 168 h, 3D culture, 7 days, CTG
Outline: (§1)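 Seven-day 3D growth at 37 °C in low-adsorption wells, 5×10^2 cells/well except MKN1 (1×10^3), final compound range 10000–0.026 nM in 0.2% DMSO. CTG luminescence read-out; percent inhibition set against DMSO and medium-only wells, IC50 by curve fitting.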

[3] = system: KRAS G12C mutant human non-small cell lung cancer cell NCI-H358; experiment: 3D cell proliferation inhibition assay, NCI-H358; format: cell-based; conditions: NCI-H358, 168 h, 3D culture, 7 days, CTG
Outline: as §1

[4] = system: KRAS G12V mutant human lung squamous carcinoma cell SW900; experiment: 3D cell proliferation inhibition assay, SW900; format: cell-based; conditions: SW900, 168 h, 3D culture, 7 days, CTG
[5] = system: KRAS G12V mutant human colorectal cancer cell SW620; experiment: 3D cell proliferation inhibition assay, SW620; format: cell-based; conditions: SW-620, 168 h, 3D culture, 7 days, CTG
Outline: as §1

T1 sequence (P01116 1-188 isoform P01116-2 G12V): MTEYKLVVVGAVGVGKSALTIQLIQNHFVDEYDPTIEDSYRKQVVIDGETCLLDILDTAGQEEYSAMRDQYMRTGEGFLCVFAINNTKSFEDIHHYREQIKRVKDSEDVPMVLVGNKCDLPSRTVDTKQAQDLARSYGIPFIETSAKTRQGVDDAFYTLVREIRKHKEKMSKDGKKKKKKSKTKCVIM

| Structure (SMILES) | pIC50 [1] | pIC50 [2] | pIC50 [3] | pIC50 [4] | pIC50 [5] |
| --- | --- | --- | --- | --- | --- |
| C#Cc1c(F)ccc2cc(O)cc(-c3ncc4c(N5CCC[C@@](C)(O)C5)nc(OCC5(CN6CCN(CC7CCC8(CC7)CCN(C(=O)c7ccc(Cl)c(N9CCC(=O)NC9=O)c7)CC8)CC6)CC5)nc4c3F)c12 [Example 1, (R)-1-(2-chloro-5-(9-((4-((1-(((7-(8-ethynyl-7-fluoro-3-hydroxynaphthalen-1-yl)-8-fluoro-4-(3-hydroxy-3-methylpiperidin-1-yl)pyrido[4,3-d]pyrimidin-2-yl)oxy)methyl)cyclopropyl)methyl)piperazin-1-yl)methyl)-3-azaspiro[5.5]undecane-3-carbonyl)phenyl)dihydropyrimidine-2,4(1H,3H)-dione] | ≥ 6.30 | ≥ 7.30 | ≥ 7.30 | ≥ 7.30 | 8.85 |
| CCc1c(F)ccc2cc(O)cc(-c3ncc4c(N5CCC[C@@](C)(O)C5)nc(OCC5(CN6CCN(CC7CCC8(CC7)CCN(C(=O)c7ccc(Cl)c(N9CCC(=O)NC9=O)c7)CC8)CC6)CC5)nc4c3F)c12 [Example 2, (R)-1-(2-chloro-5-(9-((4-((1-(((7-(8-ethyl-7-fluoro-3-hydroxynaphthalen-1-yl)-8-fluoro-4-(3-hydroxy-3-methylpiperidin-1-yl)pyrido[4,3-d]pyrimidin-2-yl)oxy)methyl)cyclopropyl)methyl)piperazin-1-yl)methyl)-3-azaspiro[5.5]undecane-3-carbonyl)phenyl)dihydropyrimidine-2,4(1H,3H)-dione] | ≥ 6.30 | ≥ 7.30 | ≥ 7.30 | ≥ 7.30 | 8.73 |
| CCc1cccc2cc(O)cc(-c3ncc4c(N5CCC[C@@](C)(O)C5)nc(OCC5(CN6CCN(CC7CCC8(CC7)CCN(C(=O)c7ccc(Cl)c(N9CCC(=O)NC9=O)c7)CC8)CC6)CC5)nc4c3F)c12 [Example 3, (R)-1-(2-chloro-5-(9-((4-((1-(((7-(8-ethyl-3-hydroxynaphthalen-1-yl)-8-fluoro-4-(3-hydroxy-3-methylpiperidin-1-yl)pyrido[4,3-d]pyrimidin-2-yl)oxy)methyl)cyclopropyl)methyl)piperazin-1-yl)methyl)-3-azaspiro[5.5]undecane-3-carbonyl)phenyl)dihydropyrimidine-2,4(1H,3H)-dione] | ≥ 6.30 | ≥ 7.30 | ≥ 7.30 | 6.30 to 7.00 | 8.60 |
| C#Cc1c(F)ccc2cc(O)cc(-c3ncc4c(N5CCC[C@@](C)(O)C5)nc(OCC5(CN6CCN(CC7CCC8(CC7)CCN(C(=O)c7ccc(C)c(N9CCC(=O)NC9=O)c7)CC8)CC6)CC5)nc4c3F)c12 [Example 6, (R)-1-(5-(9-((4-((1-(((7-(8-ethynyl-7-fluoro-3-hydroxynaphthalen-1-yl)-8-fluoro-4-(3-hydroxy-3-methylpiperidin-1-yl)pyrido[4,3-d]pyrimidin-2-yl)oxy)methyl)cyclopropyl)methyl)piperazin-1-yl)methyl)-3-azaspiro[5.5]undecane-3-carbonyl)-2-methylphenyl)dihydropyrimidine-2,4(1H,3H)-dione] | ≥ 6.30 | ≥ 7.30 | ≥ 7.30 | ≥ 7.30 | 8.89 |
| C#Cc1c(F)ccc2cc(O)cc(-c3ncc4c(N5CCC[C@@](C)(O)C5)nc(OCC5(CN6CCN(CC7CCC8(CC7)CCN(C(=O)c7ccc(OC)c(N9CCC(=O)NC9=O)c7)CC8)CC6)CC5)nc4c3F)c12 [Example 7, (R)-1-(5-(9-((4-((1-(((7-(8-ethynyl-7-fluoro-3-hydroxynaphthalen-1-yl)-8-fluoro-4-(3-hydroxy-3-methylpiperidin-1-yl)pyrido[4,3-d]pyrimidin-2-yl)oxy)methyl)cyclopropyl)methyl)piperazin-1-yl)methyl)-3-azaspiro[5.5]undecane-3-carbonyl)-2-methoxyphenyl)dihydropyrimidine-2,4(1H,3H)-dione] | ≥ 6.30 | ≥ 7.30 | ≥ 7.30 | ≥ 7.30 | 8.74 |
| C#Cc1cccc2cc(O)cc(-c3ncc4c(N5CCC[C@@](C)(O)C5)nc(OCC5(CN6CCN(CC7CCC8(CC7)CCN(C(=O)c7ccc(Cl)c(N9CCC(=O)NC9=O)c7)CC8)CC6)CC5)nc4c3F)c12 [Example 11, (R)-1-(2-chloro-5-(9-((4-((1-(((7-(8-ethynyl-3-hydroxynaphthalen-1-yl)-8-fluoro-4-(3-hydroxy-3-methylpiperidin-1-yl)pyrido[4,3-d]pyrimidin-2-yl)oxy)methyl)cyclopropyl)methyl)piperazin-1-yl)methyl)-3-azaspiro[5.5]undecane-3-carbonyl)phenyl)dihydropyrimidine-2,4(1H,3H)-dione] | 6.00 to 6.30 | ≥ 7.30 | ≥ 7.30 | ≥ 7.30 | 8.27 |

— patent US20260167622A1, “PAN-KRAS DEGRADING AGENT, AND PREPARATION METHOD THEREFOR AND USE THEREOF” (LEADINGTAC PHARMACEUTICAL (SHAOXING) CO., LTD., priority 2022, published 2026)
